# Results published in PMC8213057, “Targeting ALK2: An Open Science Approach to Developing Therapeutics for the Treatment of Diffuse Intrinsic Pontine Glioma” (Journal of Medicinal Chemistry, 2020).
# Key:
# TAOK1 = biological target: T1, TAOK1 (Homo sapiens, UniProt Q7L7X3); experiment: 375-member kinase panel; type: biochemical; conditions: Run 1, Run 2; for % enzyme activity: 1 μM; for remaining activity at 1 µM: read-out: % enzyme activity, 1 μM
# T1 construct: purchased Reaction Biology Corporation
# T1 sequence (Q7L7X3 1-1001): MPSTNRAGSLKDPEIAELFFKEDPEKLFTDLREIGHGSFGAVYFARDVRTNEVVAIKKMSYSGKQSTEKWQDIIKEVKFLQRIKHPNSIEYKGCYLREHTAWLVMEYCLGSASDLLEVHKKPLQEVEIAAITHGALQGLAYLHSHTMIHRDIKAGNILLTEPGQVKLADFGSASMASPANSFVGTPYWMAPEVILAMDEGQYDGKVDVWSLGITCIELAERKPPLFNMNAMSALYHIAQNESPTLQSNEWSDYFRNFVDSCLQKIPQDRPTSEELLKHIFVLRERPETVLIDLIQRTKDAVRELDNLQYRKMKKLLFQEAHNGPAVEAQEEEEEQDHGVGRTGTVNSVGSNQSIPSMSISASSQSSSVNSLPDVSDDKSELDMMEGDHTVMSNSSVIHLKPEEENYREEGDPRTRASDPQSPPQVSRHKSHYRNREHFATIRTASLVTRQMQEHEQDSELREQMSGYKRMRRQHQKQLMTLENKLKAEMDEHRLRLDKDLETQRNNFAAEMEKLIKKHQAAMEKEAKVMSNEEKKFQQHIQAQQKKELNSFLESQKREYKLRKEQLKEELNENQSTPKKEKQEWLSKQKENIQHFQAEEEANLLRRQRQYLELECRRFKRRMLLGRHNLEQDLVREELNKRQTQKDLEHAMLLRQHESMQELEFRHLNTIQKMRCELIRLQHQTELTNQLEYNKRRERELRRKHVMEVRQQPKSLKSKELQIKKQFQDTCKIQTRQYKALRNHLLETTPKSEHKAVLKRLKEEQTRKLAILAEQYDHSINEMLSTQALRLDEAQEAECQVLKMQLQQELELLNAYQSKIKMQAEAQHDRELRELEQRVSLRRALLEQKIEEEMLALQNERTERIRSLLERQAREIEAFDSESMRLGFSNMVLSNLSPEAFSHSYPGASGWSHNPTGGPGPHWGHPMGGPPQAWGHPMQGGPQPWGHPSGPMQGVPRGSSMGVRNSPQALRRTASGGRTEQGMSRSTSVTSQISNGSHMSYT
# BRSK2 = biological target: T2, BRSK2 (Homo sapiens, UniProt Q8IWQ3); experiment: biochemical; conditions: read-out: % enzyme activity, 1 μM; Run 1, Run 2
# T2 sequence (Q8IWQ3 1-736): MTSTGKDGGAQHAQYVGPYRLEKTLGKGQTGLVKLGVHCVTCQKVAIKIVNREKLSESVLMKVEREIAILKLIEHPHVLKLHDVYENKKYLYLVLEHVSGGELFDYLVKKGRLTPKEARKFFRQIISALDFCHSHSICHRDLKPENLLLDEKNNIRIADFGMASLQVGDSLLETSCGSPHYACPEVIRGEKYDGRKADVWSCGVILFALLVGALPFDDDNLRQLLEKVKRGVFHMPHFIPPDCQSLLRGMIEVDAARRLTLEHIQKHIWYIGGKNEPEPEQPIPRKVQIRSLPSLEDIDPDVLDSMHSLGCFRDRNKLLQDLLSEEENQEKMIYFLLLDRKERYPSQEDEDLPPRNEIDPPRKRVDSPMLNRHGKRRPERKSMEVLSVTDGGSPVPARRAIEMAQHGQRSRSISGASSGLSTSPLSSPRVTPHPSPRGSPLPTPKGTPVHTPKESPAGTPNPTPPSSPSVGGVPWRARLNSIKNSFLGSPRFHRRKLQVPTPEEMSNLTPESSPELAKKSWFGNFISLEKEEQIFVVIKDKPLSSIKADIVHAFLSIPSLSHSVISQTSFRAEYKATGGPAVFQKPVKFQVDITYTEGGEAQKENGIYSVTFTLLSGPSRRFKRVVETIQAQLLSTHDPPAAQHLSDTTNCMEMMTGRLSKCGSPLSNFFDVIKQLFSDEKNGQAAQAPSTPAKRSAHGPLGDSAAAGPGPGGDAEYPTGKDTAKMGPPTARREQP
# ERK5/MAPK7 = ERK5/MAPK7 (Homo sapiens, UniProt Q13164); experiment: biochemical; conditions: read-out: % enzyme activity, 1 μM; Run 1, Run 2
# SRPK2 = SRPK2 (Homo sapiens, UniProt P78362); experiment: biochemical; conditions: read-out: % enzyme activity, 1 μM; Run 1, Run 2
# CAMK1b = CAMK1b (Homo sapiens, UniProt Q6P2M8); experiment: biochemical; conditions: read-out: % enzyme activity, 1 μM; Run 1, Run 2
# ERK7/MAPK15 = biological target: T3, ERK7/MAPK15 (Homo sapiens, UniProt Q8TD08); experiment: biochemical; conditions: read-out: % enzyme activity, 1 μM; Run 1, Run 2
# T3 sequence (Q8TD08 1-544): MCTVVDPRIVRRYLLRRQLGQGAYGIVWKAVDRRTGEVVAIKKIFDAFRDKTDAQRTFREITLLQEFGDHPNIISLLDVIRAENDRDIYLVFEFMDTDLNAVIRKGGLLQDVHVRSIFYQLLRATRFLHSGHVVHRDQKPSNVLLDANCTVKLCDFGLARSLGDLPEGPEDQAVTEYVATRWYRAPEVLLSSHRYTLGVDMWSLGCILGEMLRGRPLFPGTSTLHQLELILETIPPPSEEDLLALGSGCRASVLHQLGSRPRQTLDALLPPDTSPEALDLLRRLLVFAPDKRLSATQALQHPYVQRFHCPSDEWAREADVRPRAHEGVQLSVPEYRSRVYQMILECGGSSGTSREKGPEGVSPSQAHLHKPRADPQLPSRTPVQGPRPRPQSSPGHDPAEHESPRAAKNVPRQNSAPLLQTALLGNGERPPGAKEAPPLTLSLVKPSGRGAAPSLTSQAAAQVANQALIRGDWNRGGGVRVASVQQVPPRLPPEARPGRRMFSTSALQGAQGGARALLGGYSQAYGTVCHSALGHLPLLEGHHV
# P38d/MAPK13 = biological target: T4, P38d/MAPK13 (Homo sapiens, UniProt O15264); experiment: biochemical; conditions: read-out: % enzyme activity, 1 μM; Run 1, Run 2
# T4 sequence (O15264 1-365): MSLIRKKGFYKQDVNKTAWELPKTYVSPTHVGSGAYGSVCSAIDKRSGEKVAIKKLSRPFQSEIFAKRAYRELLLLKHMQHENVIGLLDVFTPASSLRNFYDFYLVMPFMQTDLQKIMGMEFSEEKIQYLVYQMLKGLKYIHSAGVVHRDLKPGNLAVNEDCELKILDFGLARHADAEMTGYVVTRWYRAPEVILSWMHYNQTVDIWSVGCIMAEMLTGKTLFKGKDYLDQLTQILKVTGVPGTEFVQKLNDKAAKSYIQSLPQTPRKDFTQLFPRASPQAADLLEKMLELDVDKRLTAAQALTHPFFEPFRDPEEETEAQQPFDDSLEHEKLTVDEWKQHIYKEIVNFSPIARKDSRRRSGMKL
# Chain of ERK5/MAPK7 (Q13164 whole entry): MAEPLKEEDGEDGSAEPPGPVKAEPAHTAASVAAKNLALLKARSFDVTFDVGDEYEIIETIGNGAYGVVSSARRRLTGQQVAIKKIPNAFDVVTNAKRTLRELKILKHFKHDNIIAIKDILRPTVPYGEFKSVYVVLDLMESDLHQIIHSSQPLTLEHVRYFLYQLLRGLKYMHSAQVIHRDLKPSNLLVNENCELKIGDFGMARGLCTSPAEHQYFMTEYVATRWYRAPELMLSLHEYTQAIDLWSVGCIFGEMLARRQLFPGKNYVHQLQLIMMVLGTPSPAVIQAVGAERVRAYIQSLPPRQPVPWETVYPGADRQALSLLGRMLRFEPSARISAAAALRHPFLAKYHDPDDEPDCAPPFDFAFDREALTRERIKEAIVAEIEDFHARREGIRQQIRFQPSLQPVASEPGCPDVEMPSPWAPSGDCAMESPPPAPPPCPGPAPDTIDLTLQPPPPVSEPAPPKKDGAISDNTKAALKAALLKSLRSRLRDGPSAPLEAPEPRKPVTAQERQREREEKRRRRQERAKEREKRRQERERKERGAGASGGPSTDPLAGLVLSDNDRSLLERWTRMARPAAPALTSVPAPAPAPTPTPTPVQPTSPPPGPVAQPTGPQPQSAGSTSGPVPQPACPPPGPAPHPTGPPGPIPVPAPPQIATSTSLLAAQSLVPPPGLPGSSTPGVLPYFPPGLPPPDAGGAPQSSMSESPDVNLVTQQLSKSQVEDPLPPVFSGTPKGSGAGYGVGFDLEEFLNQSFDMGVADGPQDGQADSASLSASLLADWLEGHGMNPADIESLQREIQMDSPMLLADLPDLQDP
# Chain of CAMK1b (Q6P2M8 whole entry): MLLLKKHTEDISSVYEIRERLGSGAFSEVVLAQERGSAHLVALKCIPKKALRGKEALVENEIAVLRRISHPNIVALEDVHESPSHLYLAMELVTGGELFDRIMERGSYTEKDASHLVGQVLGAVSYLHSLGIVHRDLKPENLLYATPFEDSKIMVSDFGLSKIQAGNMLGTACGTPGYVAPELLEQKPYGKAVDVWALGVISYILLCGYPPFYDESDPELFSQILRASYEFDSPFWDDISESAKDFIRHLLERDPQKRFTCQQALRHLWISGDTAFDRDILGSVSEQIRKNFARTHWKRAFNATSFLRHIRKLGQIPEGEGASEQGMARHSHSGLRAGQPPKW
# Chain of SRPK2 (P78362 whole entry): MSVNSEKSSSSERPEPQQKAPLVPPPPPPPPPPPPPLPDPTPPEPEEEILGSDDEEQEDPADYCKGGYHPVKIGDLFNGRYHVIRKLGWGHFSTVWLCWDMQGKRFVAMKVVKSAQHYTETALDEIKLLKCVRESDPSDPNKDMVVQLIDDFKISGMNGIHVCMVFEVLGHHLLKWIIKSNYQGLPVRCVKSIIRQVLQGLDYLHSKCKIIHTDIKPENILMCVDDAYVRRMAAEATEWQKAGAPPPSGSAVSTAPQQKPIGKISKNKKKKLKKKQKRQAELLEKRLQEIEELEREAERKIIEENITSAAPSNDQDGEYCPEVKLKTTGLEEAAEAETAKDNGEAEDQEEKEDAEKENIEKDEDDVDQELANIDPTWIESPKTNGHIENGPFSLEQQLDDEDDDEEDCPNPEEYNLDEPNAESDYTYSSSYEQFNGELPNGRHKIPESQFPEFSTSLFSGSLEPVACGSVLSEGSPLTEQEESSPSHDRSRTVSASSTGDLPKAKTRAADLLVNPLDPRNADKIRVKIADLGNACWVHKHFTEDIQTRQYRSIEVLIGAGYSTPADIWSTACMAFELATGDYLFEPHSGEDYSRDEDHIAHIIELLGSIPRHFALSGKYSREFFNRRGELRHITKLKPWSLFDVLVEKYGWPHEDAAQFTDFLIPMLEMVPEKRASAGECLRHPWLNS
SMILES,% enzyme activity (TAOK1),remaining activity at 1 µM (TAOK1),CYP inhibition (CYP3A4-Testosterone),remaining activity at 1 µM (BRSK2),remaining activity at 1 µM (ERK5/MAPK7),remaining activity at 1 µM (SRPK2),remaining activity at 1 µM (CAMK1b),remaining activity at 1 µM (ERK7/MAPK15),remaining activity at 1 µM (P38d/MAPK13)
"COc1cc(-c2cncc(-c3ccc(N4CCN(C)CC4)cc3)c2C)cc(F)c1C(N)=O [Compound 26a, 2-Fluoro-6-methoxy-4-(4-methyl-5-(4-(4-methylpiperazin-1-yl)phenyl)pyridin-3-yl)benzamide]",60.19%,60.3%,> 50 µM,61.3%,96.5%,97.8%,97.9%,86.8%,101%
"COc1cc(-c2cncc(-c3ccc(N4C[C@@H](C)N(C)[C@@H](C)C4)cc3)c2C)cc(F)c1C(N)=O [Compound 26c, 2-Fluoro-6-methoxy-4-(4-methyl-5-(4-((3R,5S)-3,4,5-trimethylpiperazin-1-yl)phenyl)pyridin-3-yl)benzamide]",60.59%,62.2%,> 50 µM,77.9%,101%,121%,99.4%,98.3%,97.7%
